From patent US20140349941A1, “AROMATIC-CATIONIC PEPTIDES AND USES OF SAME” (Cornell University, priority 2011, published 2014)

Assays:
[1] = biological target: cytochrome c-CL complex (Homo sapiens, UniProt P99999); assay: Cytochrome c/CL peroxidase activity (amplex red); type: biochemical
From the text: The six coordination of the heme in cytochrome c prevents direct interaction of H2O2 with the catalytic metal site, and native cytochrome c in solution is a poor peroxidase. Upon interaction with CL, cytochrome c undergoes a structural change with rupture of the Fe-Met80 coordination. […] The mechanism of action of cytochrome c peroxidase is similar to that of other peroxidases, such as horse radish peroxidase (HRP). Thus it is possible to use the amplex red-HRP reaction to investigate cytochrome c peroxidase activity. In the presence of peroxidase, amplex red (AR) reacts with H2O2 to form the red-fluorescent oxidation product, resorufin (Ex/Em=571/585).
Cytochrome c (2 μM) was mixed with CL (25 μg/ml) and 10 μM H2O2 in 20 mM HEPES, pH 7.4. Amplex red (50 μM) was then added and fluorescence emission monitored in real time using Hitachi F4500 fluorescence spectrophotometer. Addition of amplex red elicited rapid increase in fluorescence signal due to resorufin formation, providing direct evidence for peroxidase activity of cytochrome c/CL complex (FIG. 29A).

[2] = biological target: cyt c (Homo sapiens, UniProt P99999); assay: Photoluminescence of cyt c (532.8 nm laser excitation); settings: excitation 532.8 nm
cyt c, sequence (P99999 2-105 limits assumed, species assumed): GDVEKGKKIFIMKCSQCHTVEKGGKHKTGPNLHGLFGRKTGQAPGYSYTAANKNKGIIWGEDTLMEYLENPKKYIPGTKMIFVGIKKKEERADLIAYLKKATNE
From the text: A light source 140, such as a laser or light-emitting diode (LED), illuminates the doped cyt c layer 110 at an excitation wavelength, such as 532.8 nm. […] (As understood by those skilled in the art, the gap between the valence band and the excited state is […] to the excitation wavelength.) After a short relaxation time, the electron decays from the excited state to a conduction band. When the electron relaxes to valence band from the conduction band, the doped cyt c layer 110 emits a photon at a luminescence wavelength, such as 650 nm, fixed by the gap between the valence and conduction bands.
Thus, as the aromatic-cationic peptide or aromatic-cationic peptide/cardiolipin or cardiolipin concentration in the doped cyt c layer 110 varies due to changes in the pH and/or temperature of the test substrate 130, the intensity at the luminescence wavelength varies as well. Detecting this change in intensity with a photodetector 150 yields an indication of the pH and/or temperature of the test substrate 130.
Photoluminescence (PL) was carried out to examine the effects of SS-31 on the electronic structure of conduction band of the heme of cyt c, an energy state responsible for electronic transport (FIG. 3). A […] laser (532.8 nm) was used to excite electrons in cyt c (FIG. 2A). Strong PL emission in cyt c state can be clearly identified at 650 nm (FIG. 2B).

[3] = biological target: cytochrome c (Homo sapiens, UniProt P99999); assay: Cytochrome c reduction monitored by absorption spectroscopy (glutathione or NAC as reducing agent); type: biochemical
cytochrome c, sequence (P99999 2-105 limits assumed, species assumed): as above
Method: Cytochrome c reduction: increasing amounts of aromatic-cationic peptides were added to a solution of oxidized cyt c. The formation of reduced cyt c was monitored by absorbance at […]. The rate of cyt c reduction was determined by non-linear analysis (Prizm software).
Time-resolved UV-Visible absorption spectroscopy was used to study the electron transport process of cyt c in the presence of peptides. Reduced cyt c was monitored by absorbance at a broad-band spectral range (200-1100 nm). The absorption changes were recorded with a UV/Visible spectrophotometer (Ultrospec 3300 pro, GE) in quartz cells with path lengths of 1 or 2 mm. N-acetylcysteine (NAC) and glutathione were used as electron donors to reduce oxidized cyt c. The rate constant of cyt c reduction was estimated by adding various concentrations of peptides. The dose dependence of the peptides was correlated to the cyt c reduction kinetics.
Absorption spectroscopy (UltroSpec 3300 Pro; 220-1100 nm) was used to determine if SS-31 modulates cyt c reduction (FIG. 1). Reduction of cyt c with glutathione is associated with multiple shifts in the Q band (450-650 nm), with a prominent shift at 550 nm.
Reduction of cyt c was monitored by increase in absorbance at 550 nm. […] Similar results were obtained using N-acetylcysteine (NAC) as a reducing agent (not shown).

[4] = test system: isolated mitochondria; assay: ATP synthesis in isolated mitochondria; type: biochemical, rat
Method: Fresh mitochondria were isolated from rat kidney as described previously. Electron flux was measured by O2 consumption (Oxygraph Clark electrode) as previously described using different substrates for C1 (glutamate/malate), C2 (succinate), and C3 (TMPD/ascorbate). Assays were carried out under low substrate conditions in order to avoid saturating the enzyme reactions. ATP production in isolated mitochondria was determined kinetically using the luciferase method (Biotherma) in a 96-well luminescence plate reader (Molecular Devices). The initial maximal rate for ATP synthesis was determined over the first minute.
The rate of mitochondrial ATP synthesis was determined by measuring ATP in respiration buffer collected from isolated mitochondria 1 min after addition of […] (FIG. 6). ATP was assayed by HPLC. All experiments were carried out in triplicate, with n=3.
SS-20 or SS-31 was added at 100 μM concentrations to isolated mitochondria in respiration buffer containing 0.5 mM succinate (complex II substrate) and 400 μM ADP. Similar increases in O2 consumption were observed when low concentrations of complex I substrates (glutamate/malate) were used (data not shown).
Increase in electron flux in the electron transport chain can either result in increase in ATP synthesis or increase in electron leak and generation of free radicals. ATP synthesis in isolated mitochondria was assayed by HPLC.

[5] = biological target: cyt c heme (Homo sapiens, UniProt P99999); assay: Circular dichroism of cyt c Soret band; type: binding; settings: negative peak at 415 nm without peptide; FIG. 4
cyt c heme, sequence (P99999 2-105 limits assumed, species assumed): as above
Method: Circular dichroism (Olis spectropolarimeter, DSM20) was carried out to monitor Soret band (negative peak at 415 nm), as a probe for the π-π* heme environment in cyt c (FIG. 4). […] The increase in π-π* interaction around the heme would enhance electron tunneling which would be favorable for electron diffusion.

cytochrome c-CL complex, sequence (P99999 2-105 limits assumed, species assumed, one chain of several): as the sequence (P99999 2-105 limits assumed, species assumed) above

## D-Arg-2′6′Dmt-Lys-Phe-NH2 [SS-31]
[1]; FIG. 29B
  kinetics of cytochrome c peroxidase activity: dose-dependently reduced the kinetics of cytochrome c peroxidase activity
[1]; cytochrome c 2 μM, CL 25 μg/ml, 10 μM H2O2, amplex red 50 μM, FIG. 29A
  rate of amplex red peroxidation: decreased the rate of amplex red peroxidation
[1]; figure legend FIG. 29A-C, comparison at a fixed concentration of 10 μM (FIG. 29C)
  peroxidase activity in cytochrome c/CL complex: preventing peroxidase activity in cytochrome c/CL complex
[2]
  PL intensity of cyt c at 650 nm: increased dose-dependently
[3]; N-acetylcysteine as reducing agent
  rate of NAC-induced cyt c reduction: dose-dependently increased the rate of NAC-induced cyt c reduction
[3]; absorbance at 550 nm, FIG. 13
  kinetics of cyt c reduction induced by glutathione (GSH): can accelerate the kinetics of cyt c reduction
[3]; peptide alone at 100 μM
  cyt c reduction by peptide alone: did not reduce cyt c
[3]; reduction of cyt c with glutathione, FIG. 1A
  spectral weight shift at 550 nm of cyt c: significant spectral weight shift at 550 nm
[3]; time-dependent spectroscopy, FIG. 1B
  rate of cyt c reduction: increased the rate of cyt c reduction
[4]; ATP by HPLC 1 min after addition of 400 mM ADP, FIG. 6
  rate of mitochondrial ATP synthesis: dose-dependently increased the rate of ATP synthesis
[4]; assayed by HPLC, FIG. 27
  ATP synthesis: dose-dependently increased ATP synthesis
[4]; mitochondria energized with low concentrations of succinate, FIG. 15
  rate of ATP production: significant increase in the rate of ATP production
[5]
  position of Soret band negative peak after red shift: 440 nm
